Results as given in patent publication US6410792B1, “Amide derivatives and methods for using the same as selective neuropeptide Y receptor antagonists” (Bayer Corporation, priority 1997, dated 2002).
Where a name gives a salt, the structure may show the parent alone. Read-outs that look alike come from different tables or passages of the source.

Legend:
[1] = target: T1, Human NPY1 receptor (Homo sapiens, UniProt P25929); test: Human NPY1 receptor binding assay ([125I]PYY, SK-N-MC cells); settings: [125I]PYY, SK-N-MC cells; read-out: hNPYI IC50
T1 construct: host or cells: SK-N-MC cells
T1 sequence (P25929 1-384): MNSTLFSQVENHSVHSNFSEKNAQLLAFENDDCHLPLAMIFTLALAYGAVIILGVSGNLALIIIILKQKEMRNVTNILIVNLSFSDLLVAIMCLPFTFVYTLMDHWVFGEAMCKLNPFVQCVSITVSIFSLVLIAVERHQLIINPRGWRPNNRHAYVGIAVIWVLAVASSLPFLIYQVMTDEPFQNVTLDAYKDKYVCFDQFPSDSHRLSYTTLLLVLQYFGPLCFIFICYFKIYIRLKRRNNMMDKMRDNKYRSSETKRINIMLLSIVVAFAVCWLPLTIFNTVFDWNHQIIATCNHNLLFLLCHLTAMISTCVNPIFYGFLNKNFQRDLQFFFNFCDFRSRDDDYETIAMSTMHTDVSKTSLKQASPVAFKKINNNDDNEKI
Procedure: A. Human NPY1 Receptor Binding Assay
This is a modification of Gordon et al., (J. Neurochem. 55:506-513, 1990). SK-N-MC cell (ATCC, Rockville, Md.) were plated in 24-well plates. Once confluent, cells were rinsed with Dulbecco's phosphate buffered saline (DPBS). Cells were then preincubated in binding buffer containing serum-free DMEM, 25 mM HEPES (pH 7.3), 0.5% bovine serum albumin (BSA), 0.1% bacitracin and 0.1 mM phenylmethylsulfonylfluoride for 30 minutes at room temperature. Drug dilution and [125I]PYY (˜50 pM: NEN-DuPont) were added to the wells, and the cells were incubated for an additional 3 hours at room temperature, followed by rinsing with ice-cold DPBS. Nonspecific binding was defined with 1 μM NPY. After lysing the cells with 1% Triton X-100, the amount of radioactivity in the lysates was quantitated with a gamma counter.

[2] = target: T2, Y2 receptor (Homo sapiens, UniProt P49146); test: Y2 receptor binding assay ([125I]PYY, membrane protein); settings: [125I]PYY, membrane protein; read-out: hNPY2 IC50
T2 sequence (P49146 1-381): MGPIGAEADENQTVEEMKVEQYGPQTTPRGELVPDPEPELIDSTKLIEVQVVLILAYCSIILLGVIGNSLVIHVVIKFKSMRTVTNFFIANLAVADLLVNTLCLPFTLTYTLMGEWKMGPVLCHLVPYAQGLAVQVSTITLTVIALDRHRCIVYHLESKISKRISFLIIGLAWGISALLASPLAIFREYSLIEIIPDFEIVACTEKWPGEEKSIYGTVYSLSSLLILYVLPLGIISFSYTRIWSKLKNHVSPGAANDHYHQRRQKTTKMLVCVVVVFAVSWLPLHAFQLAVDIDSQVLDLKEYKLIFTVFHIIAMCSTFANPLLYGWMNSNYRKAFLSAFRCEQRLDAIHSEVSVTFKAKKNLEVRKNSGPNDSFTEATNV
Outline: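 Filtration binding with membrane protein and drug dilution, 2 h at room temperature with mixing, radioactivity counted by gamma or scintillation. Y2: 25 pM [125I]PYY in Krebs-Ringer bicarbonate pH 7.4 with 0.01% BSA, nonspecific by 1 μM NPY. Y4/PP1: 50 pM [125I]hPP in HEPES-buffered saline pH 7.4 with protease inhibitors and 0.3% BSA, nonspecific by 1 μM hPP.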

[3] = target: human Y4/PP1 receptor (Homo sapiens, UniProt P50391); test: Human Y4/PP1 receptor binding assay ([125I]human PP, membrane protein); settings: [125I]human PP, membrane protein; read-out: hNPY4 IC50
Chain of human Y4/PP1 receptor (P50391 whole entry): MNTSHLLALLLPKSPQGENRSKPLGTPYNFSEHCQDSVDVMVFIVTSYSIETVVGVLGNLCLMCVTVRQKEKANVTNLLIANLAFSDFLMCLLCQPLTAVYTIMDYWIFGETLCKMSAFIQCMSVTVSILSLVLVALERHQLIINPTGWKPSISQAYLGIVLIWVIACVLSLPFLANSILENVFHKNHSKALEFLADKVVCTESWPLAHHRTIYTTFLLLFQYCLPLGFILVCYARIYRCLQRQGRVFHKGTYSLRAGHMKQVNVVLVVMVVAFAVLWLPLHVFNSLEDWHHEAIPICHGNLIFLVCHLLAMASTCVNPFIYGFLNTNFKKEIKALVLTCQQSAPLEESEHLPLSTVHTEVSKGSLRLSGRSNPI
Procedure: B. Human Y2 and Y4/PP1 Receptor Binding Assays
Binding assays were performed on GF/C Millipore 96-well plates pretreated with 0.02% polyethylenimine. The binding buffer for rat Y2 binding is Krebs-Ringer bicarbonate (pH 7.4) containing 0.01% BSA and 0.005% bacitracin. Samples consist of membrane protein, 25 pM [1251]PYY and drug dilution. Nonspecific binding is defined by 1 μM NPY. The binding buffer for human Y4/PP1 binding consists of 137 mM NaCl, 5.4 mM KCl, 0.44 mM KH2PO4, 1.26 mM CaCl2, 0.81 mM MgSO4, 20 mM HEPES, 1 mM dithiothreitol, 0.1% bacitracin, 100 mg/l streptomycin sulfate, 1 mg/l aprotinin, 10 mg/ml soybean trypsin inhibitor and 0.3% BSA, pH 7.4. Samples consist of membrane protein, 50 pM human [1251]human PP (hPP: NEN DuPont, Boston, Mass.) and drug dilution. 1 μM hPP is used to define nonspecific binding.
After a 2 hour incubation at room temperature with constant mixing, the samples are aspirated on a vacuum manifold, and rinsed with ice-cold binding buffer. The amount of radioactivity in each well is quantitated with either gamma counting or liquid scintillation.

[4] = target: T3, Rat NPY5 receptor (Rattus norvegicus, UniProt Q63634); test: Rat NPY5 receptor binding assay ([125I]PYY, membrane protein); settings: read-out: rNPY5 IC50
T3 sequence (Q63634 1-445): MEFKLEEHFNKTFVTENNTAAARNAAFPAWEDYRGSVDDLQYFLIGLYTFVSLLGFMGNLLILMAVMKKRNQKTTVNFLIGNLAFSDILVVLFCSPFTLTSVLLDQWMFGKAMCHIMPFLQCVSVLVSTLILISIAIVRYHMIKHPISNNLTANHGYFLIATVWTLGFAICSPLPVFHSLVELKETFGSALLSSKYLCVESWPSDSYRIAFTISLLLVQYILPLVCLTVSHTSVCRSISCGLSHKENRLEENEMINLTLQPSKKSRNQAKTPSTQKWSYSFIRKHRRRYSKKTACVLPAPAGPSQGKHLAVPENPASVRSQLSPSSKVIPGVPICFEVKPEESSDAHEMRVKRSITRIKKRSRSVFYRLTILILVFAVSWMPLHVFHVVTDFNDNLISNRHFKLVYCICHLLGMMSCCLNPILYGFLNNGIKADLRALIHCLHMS
Procedure: C. Human and Rat NPY5 Receptor Binding Assays
Binding assays are performed on GF/C Millipore 96well plates pretreated with 0.02% polyethylenimine. The binding buffer is 25 mM Tris, 120 mM NaCl, 5 mM KCl, 1.2 mM KH2PO4, 2.5 mM CaCl2, 1.2 mM MgSO4, 0.1% BSA and 0.5 mg/ml bacitracin, pH 7.4. Samples consist of membrane protein, 75-100 pM [125I]PYY (porcine, NEN-DuPont) and drug dilution. Nonspecific binding is defined by 1 μM PYY. After a 2 hour incubation at room temperature with constant mixing, the samples are aspirated on a vacuum manifold, and rinsed with ice-cold binding buffer. The amount of radioactivity in each well is quantitated with either gamma counting or liquid scintillation.

[5] = target: T4, Human NPY5 receptor (Homo sapiens, UniProt Q15761); test: Human NPY5 receptor binding assay ([125I]PYY, membrane protein); settings: read-out: hNPY5 IC50
T4 sequence (Q15761 1-445): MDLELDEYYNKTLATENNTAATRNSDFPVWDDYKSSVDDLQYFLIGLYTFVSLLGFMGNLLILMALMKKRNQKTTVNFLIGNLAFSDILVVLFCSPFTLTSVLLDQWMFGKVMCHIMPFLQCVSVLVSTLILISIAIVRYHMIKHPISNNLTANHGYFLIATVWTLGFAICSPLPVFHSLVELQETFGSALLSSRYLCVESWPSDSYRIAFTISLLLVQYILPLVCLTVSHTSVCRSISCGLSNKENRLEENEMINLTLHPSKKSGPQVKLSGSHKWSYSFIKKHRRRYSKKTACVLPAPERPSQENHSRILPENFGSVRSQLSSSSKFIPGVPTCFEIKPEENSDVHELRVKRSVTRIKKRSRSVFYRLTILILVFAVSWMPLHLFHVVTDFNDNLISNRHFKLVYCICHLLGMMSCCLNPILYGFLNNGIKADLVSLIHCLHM
Outline: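 First, membrane protein, drug dilution and 75-100 pM [125I]PYY were combined in pH 7.4 Tris saline buffer containing divalent cations and 0.1% BSA. Next, samples were mixed 2 hours at room temperature. Finally, samples were filtered, washed ice-cold and counted; 1 μM PYY gave nonspecific binding.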

Compound	IC50 [1] [µM]	IC50 [2] [µM]	IC50 [3] [µM]	IC50 ([4]; [125I]PYY) [nM]	IC50 ([5]; [125I]PYY) [nM]	IC50 ([4]; [125I]PYY binding) [nM]	IC50 ([5]; [125I]PYY binding) [nM]
Cl.O=C(CN1CCC(n2c(=O)[nH]c3ccccc32)CC1)Nc1ccc(C(=O)C(=O)c2ccccc2)cc1 [Compound 265, 2-[4-(2-Oxo-2,3-dihydro-benzoimidazol-1-yl]-N-[4-(oxo-phenyl-acetyl)-phenyl]-acetamide; hydrochloride]	> 5	> 5	> 5	5	5		
O=C(CN1CCC(n2c(=O)[nH]c3ccccc32)CC1)Nc1ccc(-c2cnco2)cc1 [Compound 267, N-(4-Oxazol-5-yl-phenyl)-2-[4-(2-oxo-2,3-dihydro-benzoimidazol-1-yl)-piperidin-1-yl]-acetamide; hydrate]	> 5	> 5	> 5	150	150		
O=C(CNCCCn1c(=O)[nH]c2ccccc21)Nc1ccc(C2CCCCC2)cc1 [Compound 276, N-(4-Cyclohexyl-phenyl)-2-[3-(2-oxo-2,3-dihydro-benzoimidazol-1-yl)-propylamino]-acetamide]		> 5	> 5		1100		
O=C(CN1CCC(n2c(=O)[nH]c3ccccc32)CC1)Nc1cccc(-c2ccccc2)c1 [Compound 323, N-Biphenyl-3-yl-2-[4-(2-oxo-2,3-dihydro-benzoimidazol-1-yl)-piperidin-1 yl]-acetamide; hydrochloride]	> 5		> 5	26	26		
O=C(CN1CCC(n2c(=O)[nH]c3ccccc32)CC1)NC1CC2CCC1C2 (stereo not drawn) [Compound 326, N-Bicyclo[2.2.1]hept-2-yl-2-[4-(2-oxo-2,3-dihydro-benzoimidazol-1-yl)-piperidin-1-yl] acetamide]		> 5	> 5				
COc1ccc(-c2ccccc2)cc1NC(=O)CN1CCC(n2c(=O)[nH]c3ccccc32)CC1 [Compound 328, N-(4-Methoxy-biphenyl-3-yl)-2-[4-(2-oxo-2,3-dihydro-benzoimidazol-1-yl)-piperidin-1-yl]-acetamide; hydrochloride]		> 5	> 5				
Nc1ccccc1NC(=O)CN1CCC(n2c(=O)[nH]c3ccccc32)CC1 [Compound 331, N-(2-Amino-phenyl)-2-[4-(2-oxo-2,3-dihydro-benzoimidazol-1-yl)-piperidin-1-yl]-acetamide, reference compound]		> 5	> 5				
O=C(CN1CCC(n2c(=O)[nH]c3ccccc32)CC1)NCc1ccc(F)cc1F [Compound 332, N-(2,4-Difluoro-benzyl)-2-[4-2(oxo-2,3-dihydro-benzoimidazol-1-yl)-piperidin-1-yl]-acetamide, reference compound]	> 5	> 5		530	610		
COC(=O)c1cc(Cl)ccc1NC(=O)CN1CCC(n2c(=O)[nH]c3ccccc32)CC1 [Compound 333, 5-Chloro-2-{2-[4-(2-oxo-2,3-dihydro-benzoimidazol-1-yl)-piperidin 1-yl]-acetylamino}-benzoic acid methyl ester, reference compound]		> 5	> 5				
NC(=O)c1cc(N)ccc1NC(=O)CN1CCC(n2c(=O)[nH]c3ccccc32)CC1 [Compound 334, 5-Amino-2-{2-[4-(2-oxo-2,3-dihydro-benzoimidazol-1-yl)piperidin 1-yl]-acetylamino}-benzamide, reference compound]		> 5	> 5				
O=C(CN1CCC(n2c(=O)[nH]c3ccccc32)CC1)Nc1ccc(Nc2ccccc2)cc1 [Compound 337, 2-[4-(2-Oxo-2,3-dihydro-benzoimidazol-1-yl)-piperidin-1-yl]-N-(4-phenylamino-phenyl)-acetamide, reference compound]	> 5		> 5	108	96		
O=C(CN1CCC(n2c(=O)[nH]c3ccccc32)CC1)Nc1cccc2ccc(O)cc12 [Compound 340, reference compound]	> 5	> 5	> 5		227		
O=C(CN1CCOCC1)Nc1ccc(C2CCCCC2)cc1 [Compound 362, N-(4-Cyclohexyl-phenyl)-2-morpholin-4-yl-acetamide, reference compound]	> 5		> 5	115	200		
N-{[(4-Cyclohexyl-phenylcarbamoyl)-methyl]-pyrrolidin-3-yl}-2,2,2-trifluoro-acetamide [Compound 197]						20	21
